In brackets after ≈: the same amount, converted by molar mass.
Experiments:
[1] = system: Peptostreptococcus intermedius 1624; type: cell-based; conditions: Peptostreptococcus, 1624, 24 h
[2] = system: Haemophilus influenzae C.L.; type: cell-based; conditions: 24 h
[3] = system: Peptostreptococcus anaerobius 1451; type: cell-based; conditions: Peptostreptococcus anaerobius, 1451, 24 h
[4] = system: Eimeria acervulina Strain FS-316 And E. tenella Strain FS-456; test: anticoccidial feed test in infected chickens, ionophore-resistant strains; type: in vivo
[5] = system: Eimeria acervulina H & C and Eimeria tenella Wis; test: anticoccidial feed test in infected chickens, ionophore-sensitive strains; type: in vivo
[6] = system: Staphylococcus aureus V41; type: cell-based; conditions: V41, 24 h
[7] = system: Proteus sp.; type: cell-based; conditions: 24 h
[8] = system: Clostridium perfringens 81; test: microbe, parasite or virus in culture; type: cell-based; conditions: Clostridium perfringens, 81, 24 h
[9] = system: Enterobacter aerogenes C32; type: cell-based; conditions: Klebsiella aerogenes, C32, 24 h
[10] = system: Klebsiella sp.; type: cell-based; conditions: 24 h
[11] = system: Herpes simplex viruses (HSV II); test: antiviral tissue-culture test; type: cell-based, Herpes simplex virus
[12] = system: Great Lakes influenza virus; type: cell-based; conditions: tissue culture
[13] = system: Staphylococcus epidermidis 270; type: cell-based; conditions: Staphylococcus epidermidis, 270, 24 h
[14] = system: Escherichia coli TEM; type: cell-based; conditions: 24 h
[15] = system: Haemophilus influenzae 76; type: cell-based; conditions: Haemophilus influenzae, 76, 24 h
[16] = system: Eimeria maxima Strain FS-177; test: anticoccidial feed test in infected chickens, ionophore-sensitive strain; type: in vivo
[17] = system: Shigella sonnei; type: cell-based; conditions: 24-hour incubation
Description: (§1) The formula 1 compounds (A82810 compounds) have antibacterial and anticoccidial activity. A82810 compounds are especially active against anaerobic bacteria. […]

[18] = system: Salmonella sp; type: cell-based; conditions: 24-hour incubation
Description: as §1

[19] = system: Clostridium septicum 1128; type: cell-based; conditions: 24-hour incubation
Description: as §1

[20] = system: Clostridium difficile 2994; type: cell-based; conditions: Clostridioides difficile, 24-hour incubation
Description: as §1

[21] = system: Bacteroides melaninogenicus 2736; type: cell-based; conditions: 2736, 24 h
[22] = system: Streptococcus faecalis 2041; type: cell-based; conditions: Enterococcus faecalis, 2041, 24 h
[23] = system: Brazil influenza virus; type: cell-based; conditions: tissue culture
[24] = system: E. maxima Strain LIT-626; test: anticoccidial feed test in infected chickens, ionophore-resistant strain; type: in vivo
[25] = system: Serratia marcescens X99; type: cell-based; conditions: X99, 24 h
[26] = system: Eimeria tenella; test: in vitro tissue-culture anticoccidial screen; type: cell-based; conditions: in vitro tissue-culture screen against Eimeria tenella
Description: Anticoccidial activity is an important property of the A82810 compounds. For example, in an in vitro tissue-culture screen against Eimeria tenella, A82810 was active at <0.0025 mcg/mL, propionyl-A82810 was active at 0.05 mcg/mL and acetyl-A82810 was active at 0.01 mcg/mL.

[27] = system: Treponema hyodysenteriae; test: growth inhibition of swine dysentery agent; type: cell-based
Description: In another aspect the A82810 compounds are useful in the treatments of swine dysentery. A82810 inhibits the growth of Treponema hyodysenteriae, a causative agent of swine dysentery, at levels as low as 1.56 mcg/mL. A preferred method of administration to swine is by incorporation of an appropriate amount of an A82810 compound into the feed ration or drinking water. An appropriate amount will relate to whether the treatment is to prevent or to cure infection. Usually, a lower concentration of active compound is needed to prevent infection than is required for to eliminate infection in animals already afflicted. In general, amounts in the range of from about 20 to about 100 grams of A82810 compound per ton of feed are effective to prevent infection. Amounts in the range of from about 100 to about 500 g of A82810 compound per ton of feed are recommended for treating swine suffering from dysentery. These amounts provide from about 1 to about 5 mg/kg of body weight per day (prophylactic treatment) or from about 5 to about 25 mg/kg of body weight per day (treatment of infected animal). When added to the drinking water, amounts of from about 0.04 to about 0.2 g (prophylactic) or from about 0.2 to about 1 g (therapeutic) of A82810 compound per gallon of water are recommended.

[28] = system: Streptococcus faecium X66; type: cell-based; conditions: Enterococcus faecium, X66, 24 h

SMILES: CC[C@@H](O)[C@]1(C)C[C@H](C)[C@@](O)([C@H]2C[C@H](C)[C@H]([C@]3(C)C[C@@H](O[C@H]4CC[C@H](OC)[C@@H](C)O4)[C@H]([C@]4(C)CC[C@@]5(O[C@H]([C@@H](C)[C@@H](OC)[C@H](C)C(=O)O)[C@H](C)[C@@H](OC)[C@H]5C)O4)O3)O2)O1 [Example A82810]
- MIC [1]: ≤ 0.25 µg/mL
- MIC [2]: 128 µg/mL (≈ 152 µM)
- MIC [3]: ≤ 0.25 µg/mL
- TOTAL LESION SCORE ([4]; 0.5 ppm): 8.7
- WEIGHT GAIN, PERCENT OF CONTROL ([4]; 0.5 ppm): 87% OF CONTROL
- TOTAL LESION SCORE ([4]; 1 ppm): 9.3
- WEIGHT GAIN, PERCENT OF CONTROL ([4]; 1 ppm): 89% OF CONTROL
- TOTAL LESION SCORE ([4]; 1.5 ppm): 7.7
- WEIGHT GAIN, PERCENT OF CONTROL ([4]; 1.5 ppm): 95% OF CONTROL
- TOTAL LESION SCORE ([4]; 2 ppm): 9.6
- WEIGHT GAIN, PERCENT OF CONTROL ([4]; 2 ppm): 93% OF CONTROL
- AVERAGE CECAL LESION SCORES ([4]; 2.5 ppm): 3.2
- AVERAGE INTESTINAL LESION SCORES ([4]; 2.5 ppm): 2.3
- WEIGHT GAIN, PERCENT OF CONTROL ([4]; 2.5 ppm): 81% OF CONTROL
- AVERAGE CECAL LESION SCORES ([4]; 3 ppm): 2.9
- AVERAGE INTESTINAL LESION SCORES ([4]; 3 ppm): 3.3
- WEIGHT GAIN, PERCENT OF CONTROL ([4]; 3 ppm): 77% OF CONTROL
- AVERAGE CECAL LESION SCORES ([4]; 3.5 ppm): 3.2
- AVERAGE INTESTINAL LESION SCORES ([4]; 3.5 ppm): 3.0
- WEIGHT GAIN, PERCENT OF CONTROL ([4]; 3.5 ppm): 85% OF CONTROL
- AVERAGE CECAL LESION SCORES ([4]; 5 ppm): 2.3
- AVERAGE INTESTINAL LESION SCORES ([4]; 5 ppm): 1.3
- WEIGHT GAIN, PERCENT OF CONTROL ([4]; 5 ppm): 95% OF CONTROL
- AVERAGE CECAL LESION SCORES ([4]; 6 ppm): 3.2
- AVERAGE INTESTINAL LESION SCORES ([4]; 6 ppm): 1.7
- WEIGHT GAIN, PERCENT OF CONTROL ([4]; 6 ppm): 98% OF CONTROL
- AVERAGE INTESTINAL LESION SCORES ([5]; 2 ppm): 1.2
- WEIGHT GAIN, PERCENT OF CONTROL ([5]; 2 ppm): 98% OF CONTROL
- AVERAGE INTESTINAL LESION SCORES ([5]; 6 ppm): 0.4
- WEIGHT GAIN, PERCENT OF CONTROL ([5]; 6 ppm): 91% OF CONTROL
- AVERAGE INTESTINAL LESION SCORES ([5]; 10 ppm): 0.3
- WEIGHT GAIN, PERCENT OF CONTROL ([5]; 10 ppm): 80% OF CONTROL
- MIC [6]: 1 µg/mL (≈ 1.19 µM)
- MIC [7]: > 128 µg/mL
- MIC [8]: 0.5 µg/mL (≈ 0.593 µM)
- MIC [9]: 8 µg/mL (≈ 9.49 µM)
- MIC [10]: > 128 µg/mL
- active at levels as low as [11]: 1.56 µg/mL
- active at a level of [12]: 250 µg/mL
- MIC [13]: 1 µg/mL (≈ 1.19 µM)
- MIC [14]: > 128 µg/mL
- MIC [15]: 64 µg/mL (≈ 75.9 µM)
- AVERAGE INTESTINAL LESION SCORES ([16]; 2 ppm): 1.9
- AVERAGE INTESTINAL LESION SCORES ([16]; 6 ppm): 0.6
- WEIGHT GAIN, PERCENT OF CONTROL ([16]; 6 ppm): 108% OF CONTROL
- AVERAGE INTESTINAL LESION SCORES ([16]; 10 ppm): 0.2
- WEIGHT GAIN, PERCENT OF CONTROL ([16]; 10 ppm): 102% OF CONTROL
- MIC [17]: 2 µg/mL (≈ 2.37 µM)
- MIC [18]: > 128 µg/mL
- MIC [19]: 0.5 µg/mL (≈ 0.593 µM)
- MIC [20]: 0.5 µg/mL (≈ 0.593 µM)
- MIC [21]: 8 µg/mL (≈ 9.49 µM)
- MIC [22]: 1 µg/mL (≈ 1.19 µM)
- active at a level of [23]: 250 µg/mL
- AVERAGE INTESTINAL LESION SCORES ([24]; 1.25 ppm): 3.7
- WEIGHT GAIN, PERCENT OF CONTROL ([24]; 1.25 ppm): 99% OF CONTROL
- AVERAGE INTESTINAL LESION SCORES ([24]; 1.5 ppm): 3.3
- WEIGHT GAIN, PERCENT OF CONTROL ([24]; 1.5 ppm): 102% OF CONTROL
- AVERAGE INTESTINAL LESION SCORES ([24]; 1.75 ppm): 4.0
- WEIGHT GAIN, PERCENT OF CONTROL ([24]; 1.75 ppm): 101% OF CONTROL
- AVERAGE INTESTINAL LESION SCORES ([24]; 2 ppm): 3.3
- WEIGHT GAIN, PERCENT OF CONTROL ([24]; 2 ppm): 94% OF CONTROL
- MIC [25]: > 128 µg/mL
- active at [26]: < 0.0025 µg/mL
- inhibits the growth at levels as low as [27]: 1.56 µg/mL
- MIC [28]: 1 µg/mL (≈ 1.19 µM)

Reference: patent EP0341019A2, “Polyether antibiotic” (priority 1988, dated 1989)
